Measurements published in patent publication US20230416232A1, “PYRIMIDINE COMPOUNDS, COMPOSITIONS, AND MEDICINAL APPLICATIONS THEREOF” (Blueprint Medicines Corporation, priority 2020, published 2023).
Read-outs that look alike come from different tables or passages of the source.

Columns and labels:
Format in all cases: cell-based
[1] = target: EGFR(D770_N771insSVD) expressing Ba/F3 stable cell line (Homo sapiens, UniProt P00533, DUP768-770, cells depend on it); test: Cellular proliferation (Alamar Blue) assay, EGFR(D770_N771insSVD) Ba/F3
Procedure, shortened: (§1)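 Compound treatment lasted 72 h at 37 °C across a final 10-0.0005 μM range in 3-fold steps; cell growth was measured with Alamar Blue (3 h). Ba/F3 seeded at 15,000 and A431 at 5000 cells/well.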

[2] = target: EGFR (H773insNPH) expressing Ba/F3 stable cell line (Homo sapiens, UniProt P00533, DUP771-773, cells depend on it); test: Cellular proliferation (Alamar Blue) assay, EGFR (H773insNPH) Ba/F3
Procedure: Cell line details: • 1. EGFR(D770_N771insSVD) expressing Ba/F3 stable cell line • 2. EGFR (A767_dupASV) expressing Ba/F3 stable cell line • 3. A431 cells • 4. EGFR (H773insNPH) expressing Ba/F3 stable cell line • 5. HER2 (A775_G776insYVMA) expressing Ba/F3 stable cell line
• 1. Seed cells at 5000 for A431 and 15,000 cells for Ba/F3 in 100 μL/well in complete media (for A431: DMEM with 10% FBS and for Ba/F3 cells: RPMI with 10% FBS) in 96-well tissue culture plate. Leave outer wells without cells for background measurements. Incubate at 37 degree Celsius in 5% CO2 humidified incubator for 16-18 hours. • 2. Add 0.025 ml of 5X concentration compound dilution or DMSO control. Final compound concentration range is 10-0.0005 μM prepared in 3-fold serial dilutions. Incubate for 72 hr at 37 degree Celsius in 5% CO2 humidified incubator. • 3. Add 0.0125 ml Alamar Blue™ reagent to each well with multi-channel pipette and tap gently on each side of the plate to mix. Incubate for 3 hours at 37 degree Celsius in 5% CO2 humidified incubator. • 4. […] Data analysis was performed using XLfit 5.5.0.5.

[3] = target: HER2 (A775_G776insYVMA) expressing Ba/F3 stable cell line (Homo sapiens, UniProt P04626, DUP772-775, cells depend on it); test: Cellular proliferation (Alamar Blue) assay, HER2 (A775_G776insYVMA) Ba/F3; conditions: read-out: YVMA IC50
Procedure, shortened: as §1

A431 cells = test: Cellular proliferation (Alamar Blue) assay, A431 cells; conditions: Homo sapiens, A-431, 72 h, read-out: A431 IC50
Procedure, shortened: as §1

[4] = target: EGFR (A767_dupASV) expressing Ba/F3 stable cell line (Homo sapiens, UniProt P00533, DUP767-769, cells depend on it); test: Cellular proliferation (Alamar Blue) assay, EGFR (A767_dupASV) Ba/F3
Procedure, shortened: as §1

[5] = HER2 (A775_G776insYVMA) Ba/F3 cells, 72 hr, Alamar Blue

Chain of EGFR (H773insNPH) expressing Ba/F3 stable cell line (P00533 with tags, fused parts or gaps DUP771-773): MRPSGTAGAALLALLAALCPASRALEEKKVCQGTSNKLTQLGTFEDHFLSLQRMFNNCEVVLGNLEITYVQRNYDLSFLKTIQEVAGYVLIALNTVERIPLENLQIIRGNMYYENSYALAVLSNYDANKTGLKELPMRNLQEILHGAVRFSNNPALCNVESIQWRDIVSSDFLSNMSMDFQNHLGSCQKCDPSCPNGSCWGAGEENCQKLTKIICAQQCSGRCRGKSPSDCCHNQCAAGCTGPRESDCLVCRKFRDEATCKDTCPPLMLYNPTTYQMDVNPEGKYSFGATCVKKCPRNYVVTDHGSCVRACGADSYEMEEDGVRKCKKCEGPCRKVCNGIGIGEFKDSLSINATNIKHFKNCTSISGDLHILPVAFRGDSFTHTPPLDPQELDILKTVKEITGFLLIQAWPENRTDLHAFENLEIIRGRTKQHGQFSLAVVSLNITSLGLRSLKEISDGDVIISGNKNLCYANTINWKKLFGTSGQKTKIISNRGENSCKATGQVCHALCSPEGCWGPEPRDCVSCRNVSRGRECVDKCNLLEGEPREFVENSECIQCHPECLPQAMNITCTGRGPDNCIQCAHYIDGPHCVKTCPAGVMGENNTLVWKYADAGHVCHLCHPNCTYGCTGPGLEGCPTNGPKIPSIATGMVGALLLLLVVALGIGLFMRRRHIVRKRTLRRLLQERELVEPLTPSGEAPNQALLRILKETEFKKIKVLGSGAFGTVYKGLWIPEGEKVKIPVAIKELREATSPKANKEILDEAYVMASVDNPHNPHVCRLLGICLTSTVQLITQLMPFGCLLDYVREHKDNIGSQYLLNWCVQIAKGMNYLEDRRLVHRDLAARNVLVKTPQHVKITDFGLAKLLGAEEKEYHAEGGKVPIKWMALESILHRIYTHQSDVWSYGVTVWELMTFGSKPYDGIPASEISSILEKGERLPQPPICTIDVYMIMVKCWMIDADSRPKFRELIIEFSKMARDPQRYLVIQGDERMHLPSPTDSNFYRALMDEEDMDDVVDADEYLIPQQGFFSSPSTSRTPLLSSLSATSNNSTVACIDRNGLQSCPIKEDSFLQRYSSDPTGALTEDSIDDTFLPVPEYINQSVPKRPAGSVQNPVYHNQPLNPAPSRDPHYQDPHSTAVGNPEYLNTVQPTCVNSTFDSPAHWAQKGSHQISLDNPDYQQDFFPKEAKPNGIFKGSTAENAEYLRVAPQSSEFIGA
Chain of EGFR (A767_dupASV) expressing Ba/F3 stable cell line (P00533 with tags, fused parts or gaps DUP767-769): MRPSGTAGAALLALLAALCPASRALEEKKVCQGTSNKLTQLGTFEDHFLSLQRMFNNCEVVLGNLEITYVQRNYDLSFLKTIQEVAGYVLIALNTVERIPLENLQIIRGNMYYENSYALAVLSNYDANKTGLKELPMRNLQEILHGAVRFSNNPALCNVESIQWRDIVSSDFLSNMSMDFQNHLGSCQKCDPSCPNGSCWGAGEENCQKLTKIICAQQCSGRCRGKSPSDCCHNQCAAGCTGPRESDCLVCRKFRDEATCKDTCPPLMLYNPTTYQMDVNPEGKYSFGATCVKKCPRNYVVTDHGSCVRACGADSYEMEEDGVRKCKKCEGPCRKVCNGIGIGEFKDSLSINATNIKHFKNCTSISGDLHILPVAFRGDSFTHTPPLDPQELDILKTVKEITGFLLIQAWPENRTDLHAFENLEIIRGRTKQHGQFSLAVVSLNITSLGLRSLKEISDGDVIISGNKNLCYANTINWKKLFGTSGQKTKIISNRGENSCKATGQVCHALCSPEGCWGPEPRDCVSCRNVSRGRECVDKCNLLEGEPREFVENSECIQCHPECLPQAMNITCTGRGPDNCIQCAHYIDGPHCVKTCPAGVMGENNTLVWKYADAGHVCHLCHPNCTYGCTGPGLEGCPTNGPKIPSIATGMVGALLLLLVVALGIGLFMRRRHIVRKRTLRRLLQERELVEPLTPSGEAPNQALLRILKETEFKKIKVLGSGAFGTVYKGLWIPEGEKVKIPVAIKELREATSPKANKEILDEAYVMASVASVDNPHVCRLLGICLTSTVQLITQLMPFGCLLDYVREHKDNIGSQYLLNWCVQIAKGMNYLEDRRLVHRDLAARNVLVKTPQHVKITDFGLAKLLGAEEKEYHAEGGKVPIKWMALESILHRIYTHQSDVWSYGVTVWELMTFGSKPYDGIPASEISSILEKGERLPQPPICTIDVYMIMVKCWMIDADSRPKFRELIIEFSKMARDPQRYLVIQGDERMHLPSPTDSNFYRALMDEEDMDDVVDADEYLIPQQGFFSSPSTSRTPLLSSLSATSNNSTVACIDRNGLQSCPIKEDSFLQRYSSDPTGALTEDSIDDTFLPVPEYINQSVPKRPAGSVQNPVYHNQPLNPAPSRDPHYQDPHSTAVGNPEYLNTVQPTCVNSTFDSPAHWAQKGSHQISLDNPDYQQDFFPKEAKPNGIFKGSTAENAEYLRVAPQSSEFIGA
Chain of HER2 (A775_G776insYVMA) expressing Ba/F3 stable cell line (P04626 with tags, fused parts or gaps DUP772-775): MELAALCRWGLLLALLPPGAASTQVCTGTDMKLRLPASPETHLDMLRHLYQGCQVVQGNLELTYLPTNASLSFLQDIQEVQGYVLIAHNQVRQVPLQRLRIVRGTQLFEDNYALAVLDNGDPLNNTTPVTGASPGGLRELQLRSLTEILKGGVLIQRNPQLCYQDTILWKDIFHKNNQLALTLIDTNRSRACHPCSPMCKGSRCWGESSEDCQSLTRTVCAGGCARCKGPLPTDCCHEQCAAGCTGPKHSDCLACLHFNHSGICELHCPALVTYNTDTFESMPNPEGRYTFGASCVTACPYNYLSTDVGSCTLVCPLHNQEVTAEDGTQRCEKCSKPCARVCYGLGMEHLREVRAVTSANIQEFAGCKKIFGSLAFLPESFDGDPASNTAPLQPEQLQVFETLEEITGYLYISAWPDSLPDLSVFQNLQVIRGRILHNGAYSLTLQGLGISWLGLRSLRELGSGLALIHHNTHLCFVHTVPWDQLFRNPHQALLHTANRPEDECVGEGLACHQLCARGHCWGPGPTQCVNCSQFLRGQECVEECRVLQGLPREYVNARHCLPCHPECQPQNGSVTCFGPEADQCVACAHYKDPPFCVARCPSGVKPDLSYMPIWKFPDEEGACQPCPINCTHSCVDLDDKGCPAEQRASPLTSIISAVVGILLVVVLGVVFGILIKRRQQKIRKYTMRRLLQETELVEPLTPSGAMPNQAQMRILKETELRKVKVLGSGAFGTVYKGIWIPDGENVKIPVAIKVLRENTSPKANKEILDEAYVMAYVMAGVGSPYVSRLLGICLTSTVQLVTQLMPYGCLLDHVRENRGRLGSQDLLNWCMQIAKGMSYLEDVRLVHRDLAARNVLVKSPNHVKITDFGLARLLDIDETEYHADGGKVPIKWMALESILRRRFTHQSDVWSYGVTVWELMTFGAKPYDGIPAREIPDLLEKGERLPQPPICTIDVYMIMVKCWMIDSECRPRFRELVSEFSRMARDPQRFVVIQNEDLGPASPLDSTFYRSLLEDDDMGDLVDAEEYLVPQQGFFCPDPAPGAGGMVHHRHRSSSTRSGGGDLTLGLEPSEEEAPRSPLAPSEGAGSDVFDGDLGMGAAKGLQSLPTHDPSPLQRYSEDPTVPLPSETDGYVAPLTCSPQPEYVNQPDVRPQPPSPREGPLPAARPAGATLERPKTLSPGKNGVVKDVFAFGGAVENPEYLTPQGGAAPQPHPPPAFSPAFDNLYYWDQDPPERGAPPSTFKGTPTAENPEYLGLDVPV
Chain of EGFR(D770_N771insSVD) expressing Ba/F3 stable cell line (P00533 with tags, fused parts or gaps DUP768-770): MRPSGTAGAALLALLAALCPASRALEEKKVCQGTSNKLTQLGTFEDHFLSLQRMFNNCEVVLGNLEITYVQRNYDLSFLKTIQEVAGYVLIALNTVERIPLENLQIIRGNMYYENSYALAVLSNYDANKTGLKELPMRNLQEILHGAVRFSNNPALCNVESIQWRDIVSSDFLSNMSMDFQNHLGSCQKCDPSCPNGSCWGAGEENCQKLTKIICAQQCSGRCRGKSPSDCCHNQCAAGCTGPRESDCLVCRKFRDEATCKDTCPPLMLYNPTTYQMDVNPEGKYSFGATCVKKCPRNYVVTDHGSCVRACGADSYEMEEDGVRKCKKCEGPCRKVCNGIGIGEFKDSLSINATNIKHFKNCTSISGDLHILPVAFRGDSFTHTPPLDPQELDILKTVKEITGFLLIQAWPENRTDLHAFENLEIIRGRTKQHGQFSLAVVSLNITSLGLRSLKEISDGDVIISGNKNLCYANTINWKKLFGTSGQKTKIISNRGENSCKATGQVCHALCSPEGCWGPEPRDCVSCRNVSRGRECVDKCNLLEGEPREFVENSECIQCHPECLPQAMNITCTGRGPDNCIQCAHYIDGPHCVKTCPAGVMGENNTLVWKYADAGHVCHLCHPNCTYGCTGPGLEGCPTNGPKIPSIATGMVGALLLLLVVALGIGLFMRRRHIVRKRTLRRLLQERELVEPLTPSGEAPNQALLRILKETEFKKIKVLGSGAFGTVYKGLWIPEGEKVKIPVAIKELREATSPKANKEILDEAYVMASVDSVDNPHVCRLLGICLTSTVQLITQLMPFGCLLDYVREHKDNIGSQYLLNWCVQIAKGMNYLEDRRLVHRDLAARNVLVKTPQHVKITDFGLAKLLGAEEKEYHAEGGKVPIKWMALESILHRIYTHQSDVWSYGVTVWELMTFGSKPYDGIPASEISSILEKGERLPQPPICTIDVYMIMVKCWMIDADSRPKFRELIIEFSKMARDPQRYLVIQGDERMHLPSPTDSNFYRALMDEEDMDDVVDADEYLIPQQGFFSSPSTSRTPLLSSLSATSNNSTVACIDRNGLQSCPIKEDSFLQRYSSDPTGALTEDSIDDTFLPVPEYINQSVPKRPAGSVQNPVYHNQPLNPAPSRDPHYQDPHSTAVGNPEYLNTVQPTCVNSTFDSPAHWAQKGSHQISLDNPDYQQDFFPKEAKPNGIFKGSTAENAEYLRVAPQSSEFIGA

| SMILES | GI50 ([1]; 72 hr, read-out: D770 IC50) | GI50 ([2]; 72 hr, read-out: NPH IC50) | GI50 [3, 5] | IC50 (A431 cells; A431 cells, 72 hr, Alamar Blue) | GI50 ([4]; 72 hr, read-out: A767 IC50) | GI50 ([1]; read-out: D770 IC50, 72 hr) | GI50 ([2]; read-out: NPH IC50, 72 hr) | GI50 ([3]; her2 (a775_g776insyvma) expressing ba/f3 stable cell line) | IC50 (A431 cells) | GI50 ([4]; read-out: A767 IC50, 72 hr) |
| --- | --- | --- | --- | --- | --- | --- | --- | --- | --- | --- |
| C=CC(=O)Nc1ccc(F)c(Nc2nc(Nc3cnn(C)c3)ncc2-c2ccc(CN(C)C)c(F)c2)c1 [Compound 60, N-(3-((5-(4-((dimethylamino)methyl)-3-fluorophenyl)-2-((1-methyl-1H-pyrazol-4-yl)amino)pyrimidin-4-yl)amino)-4-fluorophenyl)acrylamide] | 170 nM | 462 nM | 952 nM | 1180 nM | 150 nM | – | – | – | – | – |
| C=CC(=O)Nc1ccc(F)c(Nc2nc(Nc3cnn(C)c3)ncc2-c2ccc(Cl)c(Cl)c2)c1 [Compound 50, N-(3-((5-(3,4-dichlorophenyl)-2-((1-methyl-1H-pyrazol-4-yl)amino)pyrimidin-4-yl)amino)-4-fluorophenyl)acrylamide] | 32 nM | 61 nM | 86 nM | 70 nM | 26 nM | – | – | – | – | – |
| C=CC(=O)Nc1ccc(F)c(Nc2nc(Nc3cnn(CCN(C)C)c3)ncc2-c2ccc(Cl)c(Cl)c2)c1 [Compound 58, N-(3-((5-(3,4-dichlorophenyl)-2-((1-(2-(dimethylamino)ethyl)-1H-pyrazol-4-yl)amino)pyrimidin-4-yl)amino)-4-fluorophenyl)acrylamide] | 130 nM | 214 nM | 100 nM | 85 nM | 257 nM | – | – | – | – | – |
| C=CC(=O)Nc1ccc(F)c(Nc2nc(Nc3cnn(C)c3)ncc2-c2cc(F)cc(F)c2)c1 [Compound 26, N-(3-((5-(3,5-difluorophenyl)-2-((1-methyl-1H-pyrazol-4-yl)amino)pyrimidin-4-yl)amino)-4-fluorophenyl)acrylamide] | 27 nM | 31 nM | 112 nM | 443 nM | 35 nM | – | – | – | – | – |
| C=CC(=O)Nc1ccc(F)c(Oc2nc(Nc3cnn(C)c3)ncc2-c2ccc(Cl)c(F)c2)c1 [Compound 98, N-(3-{[5-(4-chloro-3-fluorophenyl)-2-[(1-methyl-1H-pyrazol-4-yl)amino]pyrimidin-4-yl]oxy}-4-fluorophenyl) prop-2-enamide] | 36 nM | 153 nM | 252 nM | 990 nM | 104 nM | – | – | – | – | – |
| C=CC(=O)Nc1ccc(F)c(Nc2nc(Nc3cnn(C)c3)ncc2-c2cc(F)cc(OC)c2)c1 [Compound 65, N-(4-fluoro-3-{[5-(3-fluoro-5-methoxyphenyl)-2-[(1-methyl-1H-pyrazol-4-yl)amino]pyrimidin-4-yl]amino}phenyl)prop-2-enamide] | 114 nM | 304 nM | 112 nM | 1070 nM | 226 nM | – | – | – | – | – |
| C=CC(=O)Nc1ccc(F)c(Nc2nc(Nc3cnn(C)c3)ncc2-c2cnc(Cl)c(F)c2)c1 [Compound 45, N-(3-((5-(6-chloro-5-fluoropyridin-3-yl)-2-((1-methyl-1H-pyrazol-4-yl)amino)pyrimidin-4-yl)amino)-4-fluorophenyl)acrylamide] | 7 nM | 25 nM | 16 nM | 35 nM | 10 nM | – | – | – | – | – |
| C=CC(=O)Nc1ccc(F)c(Nc2nc(Nc3cnn(C)c3)ncc2-c2ccc(OC)c(F)c2)c1 [Compound 1, N-(4-fluoro-3-((5-(3-fluoro-4-methoxyphenyl)-2-((1-methyl-1H-pyrazol-4-yl)amino)pyrimidin-4-yl)amino)phenyl)acrylamide] | 36 nM | 36 nM | 91 nM | 269 nM | 36 nM | – | – | – | – | – |
| C=CC(=O)Nc1ccc(F)c(Nc2nc(Nc3cnn(C)c3)ncc2-c2ccc(C(F)(F)F)cc2F)c1 [Compound 21, N-(4-fluoro-3-((5-(2-fluoro-4-(trifluoromethyl)phenyl)-2-((1-methyl-1H-pyrazol-4-yl)amino)pyrimidin-4-yl)amino)phenyl)acrylamide] | 107 nM | 261 nM | 1030 nM | > 10000 nM | 181 nM | – | – | – | – | – |
| C=CC(=O)Nc1ccc(F)c(Nc2nc(Nc3cnn(CCN(C)C)c3)ncc2-c2ccc(F)c(Cl)c2)c1 [Compound 57, N-(3-((5-(3-chloro-4-fluorophenyl)-2-((1-(2-(dimethylamino)ethyl)-1H-pyrazol-4-yl)amino)pyrimidin-4-yl)amino)-4-fluorophenyl)acrylamide] | – | – | – | – | – | 111 nM | 62 nM | 112 nM | 699 nM | 207 nM |
| C=CC(=O)Nc1ccc(F)c(Nc2nc(Nc3cnn(C)c3)ncc2-c2cnc(C)c(Cl)c2)c1 [Compound 46, N-(3-((5-(5-chloro-6-methylpyridin-3-yl)-2-((1-methyl-1H-pyrazol-4-yl)amino)pyrimidin-4-yl)amino)-4-fluorophenyl)acrylamide] | 17 nM | 30 nM | 34 nM | 102 nM | 29 nM | – | – | – | – | – |
| C=CC(=O)Nc1ccc(F)c(Nc2nc(Nc3cnn(C)c3)ncc2-c2ccc(C(F)(F)F)c(Cl)c2)c1 [Compound 54, N-(3-((5-(3-chloro-4-(trifluoromethyl)phenyl)-2-((1-methyl-1H-pyrazol-4-yl)amino)pyrimidin-4-yl)amino)-4-fluorophenyl)acrylamide] | 85 nM | 186 nM | 260 nM | – | 184 nM | – | – | – | – | – |
| C=CC(=O)Nc1ccc(F)c(Nc2nc(Nc3cnn(C)c3)ncc2-c2ccc(N3CCCCC3)c(F)c2)c1 [Compound 78, N-(4-fluoro-3-((5-(3-fluoro-4-(piperidin-1-yl)phenyl)-2-((1-methyl-1H-pyrazol-4-yl)amino)pyrimidin-4-yl)amino)phenyl)acrylamide] | 111 nM | 144 nM | 286 nM | 102 nM | 59 nM | – | – | – | – | – |
| C=CC(=O)Nc1ccc(F)c(Nc2nc(Nc3cn(C)nc3Cl)ncc2-c2ccc(Br)c(F)c2)c1 [Compound 92, N-(3-((5-(4-bromo-3-fluorophenyl)-2-((3-chloro-1-methyl-1H-pyrazol-4-yl)amino)pyrimidin-4-yl)amino)-4-fluorophenyl)acrylamide] | 74 nM | 54 nM | 113 nM | 45 nM | 102 nM | – | – | – | – | – |
| C=CC(=O)Nc1ccc(F)c(Nc2nc(Nc3cnn(C)c3)ncc2-c2cc(F)cc(C(F)F)c2)c1 [Compound 15, N-(3-((5-(3-(difluoromethyl)-5-fluorophenyl)-2-((1-methyl-1H-pyrazol-4-yl)amino)pyrimidin-4-yl)amino)-4-fluorophenyl)acrylamide] | 36 nM | 102 nM | 124 nM | 84 nM | 45 nM | – | – | – | – | – |
| C=CC(=O)Nc1ccc(F)c(Nc2nc(Nc3cnn(CCO)c3)ncc2-c2ccc(Cl)c(Cl)c2)c1 [Compound 51, N-(3-((5-(3,4-dichlorophenyl)-2-((1-(2-hydroxyethyl)-1H-pyrazol-4-yl)amino)pyrimidin-4-yl)amino)-4-fluorophenyl)acrylamide] | 38 nM | 79 nM | – | 110 nM | 56 nM | – | – | – | – | – |
| C=CC(=O)Nc1ccc(F)c(Nc2nc(Nc3cnn(C)c3)ncc2-c2ccc(N3CCCOCC3)c(F)c2)c1 [Compound 84, N-(4-fluoro-3-((5-(3-fluoro-4-(1,4-oxazepan-4-yl)phenyl)-2-((1-methyl-1H-pyrazol-4-yl)amino)pyrimidin-4-yl)amino)phenyl)acrylamide] | 122 nM | 92 nM | – | 522 nM | 101 nM | – | – | – | – | – |
